Where “and” joins values, the source holds several entries; their conditions need not be identical. Equal entries are not always repeated. Inconclusive results and toxic doses are left out.

The test relates to BDF1 mice, B16 melanoma ip, median survival T/C. Put plainly: NCI In Vivo Anticancer Drug Screen. Data for tumor model B16 Melanoma (intraperitoneal) in B6D2F1 (BDF1) mice. To be noted: endpoint: median survival time, higher = longer survival. In outline: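 The ratio T/C compares compound-treated mice with vehicle-treated controls, using survival or tumor size as the endpoint in a transplantable tumor model.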

The mark [1] stands for this setting: dose: 50.0 mg/kg/injection, schedule: Q01DX009 (ip), vehicle: Klucel (hydroxypropylcellulose) (HPC).
[2] abbreviates: dose: 100.0 mg/kg/injection, schedule: Q01DX009 (ip), vehicle: Klucel (hydroxypropylcellulose) (HPC).
Setting [3] is: dose: 25.0 mg/kg/injection, schedule: Q01DX009 (ip), vehicle: saline.
The mark [4] stands for this setting: dose: 50.0 mg/kg/injection, schedule: Q01DX009 (ip), vehicle: saline.
Setting [5] is: dose: 100.0 mg/kg/injection, schedule: Q01DX009 (ip), vehicle: saline.
[6] abbreviates: dose: 100.0 mg/kg/injection, schedule: Q01DX009 (ip), vehicle: saline with Tween-80.
[7] abbreviates: dose: 10.0 mg/kg/injection, schedule: Q01DX009 (ip), vehicle: saline.
[8] abbreviates: dose: 20.0 mg/kg/injection, schedule: Q01DX009 (ip), vehicle: saline.
The mark [9] stands for this setting: dose: 6.25 mg/kg/injection, schedule: Q01DX009 (ip), vehicle: saline.
The mark [10] stands for this setting: dose: 12.5 mg/kg/injection, schedule: Q01DX009 (ip), vehicle: saline.
Where [11] appears, read: dose: 12.5 mg/kg/injection, schedule: Q01DX009 (ip), vehicle: Klucel (hydroxypropylcellulose) (HPC).

In the case of `OC1COC(c2ccco2)OC1` (stereo not given) (tested in a mixture with another compound), the T/C reads like this: under setting [1], 100 % of control; under setting [2], 100 % of control; (dose: 200.0 mg/kg/injection, schedule: Q01DX009 (ip), vehicle: Klucel (hydroxypropylcellulose) (HPC)) 106 % of control.
As for `CCCCCCCCCCCCCCCCCCOC(=O)Cc1ccc(N(CCCl)CCCl)cc1`, the T/C by setting is: (dose: 180.0 mg/kg/injection, schedule: Q04DX003 (ip), vehicle: saline with Tween-80) 102 % of control; (dose: 266.0 mg/kg/injection, schedule: Q04DX003 (ip), vehicle: saline with Tween-80) 107 % of control.
With `Clc1ccc2c(c1)C(Nc1cc3c4ccccc4ccc3c3ccccc13)c1cc(Cl)cc(Cl)c1-2` (stereo not given), the T/C (dose: 6.25 mg/kg/injection, schedule: Q01DX009 (ip), vehicle: saline with Tween-80) is 86 % of control.
Turning to `[Cl][Pt+2][Cl].[NH-]c1cc(Cl)c(Cl)cc1[NH-]`, the T/C reads like this: (dose: 40.0 mg/kg/injection, schedule: Q01DX009 (ip), vehicle: saline with Tween-80) 114 % of control; (dose: 80.0 mg/kg/injection, schedule: Q01DX009 (ip), vehicle: saline with Tween-80) 118 % of control; (dose: 320.0 mg/kg/injection, schedule: Q01DX009 (ip), vehicle: saline with Tween-80) 113 % of control.
Regarding `CCNCCNC`, the T/C under setting [3] was 109 % of control, the T/C under setting [4] was 98 % of control and the T/C under setting [5] was 86 % of control.
`CCCCCCCCCCCCCCCCCC[n+]1cccc(C(=O)N2CCOCC2)c1`: the T/C runs as follows: (dose: 2.0 mg/kg/injection, schedule: Q01DX009 (ip), vehicle: saline sonified) 92 % of control; (dose: 4.0 mg/kg/injection, schedule: Q01DX009 (ip), vehicle: saline sonified) 100 % of control; (dose: 8.0 mg/kg/injection, schedule: Q01DX009 (ip), vehicle: saline sonified) 92 % of control; (dose: 16.0 mg/kg/injection, schedule: Q01DX009 (ip), vehicle: saline sonified) 92 % of control.
In the case of `CC(NC(=O)C1CCCN1C(=O)OCc1ccccc1)C(=O)O` (stereo not given), the T/C is 91 % of control (dose: 50.0 mg/kg/injection, schedule: Q01DX009 (ip), vehicle: saline with Tween-80) and 90 % of control under setting [6].
Regarding `CCCNCCNc1ccc(NCCNCCC)c2c1C(=O)c1ccccc1C2=O`, the T/C reads like this: (dose: 16.0 mg/kg/injection, schedule: Q01DX009 (ip), vehicle: acid diluted with saline) 112 % of control; (dose: 32.0 mg/kg/injection, schedule: Q01DX009 (ip), vehicle: acid diluted with saline) 99 % of control.
As for `C[C@@H]1C[C@@]2(C)[C@@H](CC[C@@H]3[C@@H]2CC[C@]2(C)[C@@H](OC4CCCCO4)CC[C@@H]32)CC1=O` (stereo not given in full), the T/C (dose: 25.0 mg/kg/injection, schedule: Q01DX009 (ip), vehicle: Klucel (hydroxypropylcellulose) (HPC)) is 105 % of control; the T/C under setting [1] was 100 % of control; the T/C under setting [2] is 100 % of control.
As to `CCC1CN2C(=N1)c1ccccc1-c1cc(Cl)ccc12` (stereo not given), the T/C reads like this: (dose: 6.25 mg/kg/injection, schedule: Q01DX009 (ip), vehicle: suspension in saline) 95 % of control; under setting [7], 94 % of control; (dose: 12.5 mg/kg/injection, schedule: Q01DX009 (ip), vehicle: suspension in saline) 109 % of control; under setting [8], 118 % of control; (dose: 40.0 mg/kg/injection, schedule: Q01DX009 (ip), vehicle: saline) 150 % of control; (dose: 50.0 mg/kg/injection, schedule: Q01DX009 (ip), vehicle: suspension in saline) 157 % of control.
On to `Cn1c(N)c(C(=O)/C=C/c2ccccc2)c(=O)n(C)c1=O`, for which, under setting [1], the T/C was 88 % of control.
For the compound `CCC(=O)NC1=C(N2CC2)C(=O)C(NC(=O)CC)=C(N2CC2)C1=O`, the T/C by setting is: (dose: 0.5 mg/kg/injection, schedule: Q01DX009 (ip), vehicle: saline) 107 % of control; (dose: 1.0 mg/kg/injection, schedule: Q01DX009 (ip), vehicle: saline) 107 % of control; (dose: 2.0 mg/kg/injection, schedule: Q01DX009 (ip), vehicle: saline) 113 % of control.
Consider `COc1cc(/C=C/[N+](=O)[O-])c([N+](=O)[O-])cc1OC`, for which the T/C under setting [9] is 102 % of control, the T/C under setting [10] was 90 % of control and the T/C under setting [3] was 92 % of control.
As to `NCCC(O)C(=O)NC1CC(N)C(OC2OC(CO)C(O)C(O)C2N)C(OC2OC(CO)C(O)C2O)C1O` (stereo not given), the T/C under setting [7] is 122 % of control and the T/C under setting [8] was 124 % of control.
As to `C(=N\C(/N=C/c1ccco1)c1ccco1)/c1ccco1`, the T/C reads like this: (dose: 40.0 mg/kg/injection, schedule: Q01DX009 (ip), vehicle: Klucel (hydroxypropylcellulose) (HPC)) 94 % of control; (dose: 80.0 mg/kg/injection, schedule: Q01DX009 (ip), vehicle: Klucel (hydroxypropylcellulose) (HPC)) 89 % of control; (dose: 160.0 mg/kg/injection, schedule: Q01DX009 (ip), vehicle: Klucel (hydroxypropylcellulose) (HPC)) 97 % of control; (dose: 320.0 mg/kg/injection, schedule: Q01DX009 (ip), vehicle: Klucel (hydroxypropylcellulose) (HPC)) 92 % of control.
In the case of `O=C(O)CSC(CC(=O)O)C(=O)O` (stereo not given), the T/C was 106 % of control (dose: 200.0 mg/kg/injection, schedule: Q01DX009 (ip), vehicle: saline) and 106 % of control (dose: 400.0 mg/kg/injection, schedule: Q01DX009 (ip), vehicle: saline).
With `CNC(=O)CCN1CCN(CC/C=C2\c3ccccc3Sc3ccc(Cl)cc32)CC1`, the T/C by setting is: (dose: 0.12 mg/kg/injection, schedule: Q01DX009 (ip), vehicle: saline) 105 % of control; (dose: 0.51 mg/kg/injection, schedule: Q01DX009 (ip), vehicle: saline) 100 % of control; (dose: 1.03 mg/kg/injection, schedule: Q01DX009 (ip), vehicle: saline) 87 % of control; (dose: 2.06 mg/kg/injection, schedule: Q01DX009 (ip), vehicle: saline) 95 % of control; (dose: 4.12 mg/kg/injection, schedule: Q01DX009 (ip), vehicle: saline) 97 % of control.
Turning to `COc1cc2c(cc1OC)[C@H]1CNC[C@H]1[C@@H](c1ccccc1)C2`, the T/C under setting [4] is 123 % of control and the T/C under setting [5] was 114 % of control.
Consider `CN(C(=O)c1cccnc1)c1ccccc1`, for which the T/C under setting [6] is 109 % of control; the T/C (dose: 200.0 mg/kg/injection, schedule: Q01DX009 (ip), vehicle: saline with Tween-80) is 118 % of control; the T/C (dose: 400.0 mg/kg/injection, schedule: Q01DX009 (ip), vehicle: saline with Tween-80) is 111 % of control.
On to `COc1cccc2c1C(=O)c1c(O)c3c(c(O)c1C2=O)C[C@@](O)(C(=O)CN1CCN(C)CC1)C[C@@H]3OC1CC(N)C(O)C(C)O1` (stereo not given in full), for which the T/C by setting is: (dose: 1.56 mg/kg/injection, schedule: Q01DX009 (ip), vehicle: water) 110 % of control; (dose: 3.13 mg/kg/injection, schedule: Q01DX009 (ip), vehicle: water) 113 % of control.
In the case of `CS(=O)(=O)OCCCCOS(C)(=O)=O`, the T/C (dose: 3.13 mg/kg/injection, schedule: Q01DX009 (ip), vehicle: saline) is 108 % of control; the T/C under setting [9] was 105 % of control; the T/C under setting [11] was 106 % of control and 107 % of control; the T/C (dose: 12.5 mg/kg/injection, schedule: Q01DX009 (ip), vehicle: saline with Tween-80) was 97 % of control and 100 % of control and 102 % of control; the T/C under setting [10] was 95 % of control and 105 % of control.
Consider `Clc1ccc(C[P+](c2ccccc2)(c2ccccc2)c2ccccc2)cc1Cl`, for which the T/C reads like this: (dose: 3.12 mg/kg/injection, schedule: Q01DX009 (ip), vehicle: Klucel (hydroxypropylcellulose) (HPC)) 103 % of control; (dose: 6.25 mg/kg/injection, schedule: Q01DX009 (ip), vehicle: Klucel (hydroxypropylcellulose) (HPC)) 101 % of control; under setting [11], 107 % of control.
With `CC(=O)OCC1OC(OC(C)=O)C(NC(=O)N(CCCl)N=O)C(OC(C)=O)C1OC(C)=O` (stereo not given), the T/C was 162 % of control (dose: 0.75 mg/kg/injection, schedule: Q01DX009 (ip), vehicle: Klucel (hydroxypropylcellulose) (HPC)); 152 % of control (dose: 1.0 mg/kg/injection, schedule: Q01DX009 (ip), vehicle: Klucel (hydroxypropylcellulose) (HPC)); 180 % of control (dose: 1.5 mg/kg/injection, schedule: Q01DX009 (ip), vehicle: Klucel (hydroxypropylcellulose) (HPC)); 188 % of control and 287 % of control (dose: 2.0 mg/kg/injection, schedule: Q01DX009 (ip), vehicle: Klucel (hydroxypropylcellulose) (HPC)); 208 % of control (dose: 3.0 mg/kg/injection, schedule: Q01DX009 (ip), vehicle: Klucel (hydroxypropylcellulose) (HPC)); 232 % of control (dose: 4.0 mg/kg/injection, schedule: Q01DX009 (ip), vehicle: Klucel (hydroxypropylcellulose) (HPC)).

These data come from PubChem BioAssay AID192 (DTP/NCI, 2004).
